According to patent publication US20130338092A1, “COMPOUNDS AND METHODS FOR TARGETING LEUKEMIC STEM CELLS” (The Broad Institute, Inc., priority 2011, published 2013):
Entries after “also recorded” stand apart in the source; their conditions may differ.

Test system: primary leukemia cells
Experiment: Gene expression profiling with GSEA
Format: cell-based, murine
Conditions: 5 μM, 6 hours in suspension
Procedure: To elucidate potential cell-autonomous effects of BRD7116, primary leukemia cells were exposed to either 5 μM BRD7116 or DMSO vehicle for 6 hours in suspension in IMDM (12440053, Invitrogen) with 10% FBS, 10 ng/ml mIL3, and 1× Pen-Strep.
RNA was isolated using a trizol-chloroform protocol or with a Qiagen RNeasy kit (74104, Qiagen). Total RNA from the samples was normalized to 20 ng/μl and the Illumina® TotalPrep™-96 RNA Amplification Kit (Applied Biosystems, PN #4393543) protocol was used for amplification in a semi automated process. The total RNA underwent reverse transcription to synthesize first-strand cDNA. This cDNA was then converted into a double-stranded DNA template for transcription. In vitro transcription synthesized aRNA and incorporated a biotin-conjugated nucleotide. […] Illumina's BeadArray Reader was used to measure the fluorescence intensity at each addressed bead location.
Gene-expression profiles were generated by using mouse ref-8 DNA microarray (Illumina) according to manufacturer's instruction. […] The resulting data was analyzed using Gene Set Enrichment Analysis method (Subramanian, A., Tamayo, P., Mootha, V. K., Mukherjee, S., Ebert, B. L., Gillette, M. A., Paulovich, A., Pomeroy, S. L., Golub, T. R., Lander, E. S., et al. (2005). Proc Natl Acad Sci USA 102, 15545-15550.). […]

CC1(C)C(C(=O)Nc2ccc(S(=O)(=O)c3ccc(NC(=O)C4C(C)(C)C4(C)C)cc3)cc2)C1(C)C [BRD7116]
gene expression changes (GSEA): induces an AML differentiation program; also recorded: induction of an AML differentiation program
